Our source for the Ki values is US7855214B2, “Fused cyclic systems useful as inhibitors of TEC family protein kinases” (Vertex Pharmaceuticals Incorporated, priority 2004, dated 2010).

pKi: −log10 of the molar value.

This experiment concerns the target T1, Itk (Homo sapiens, UniProt Q08881).
T1 sequence (Q08881 1-620): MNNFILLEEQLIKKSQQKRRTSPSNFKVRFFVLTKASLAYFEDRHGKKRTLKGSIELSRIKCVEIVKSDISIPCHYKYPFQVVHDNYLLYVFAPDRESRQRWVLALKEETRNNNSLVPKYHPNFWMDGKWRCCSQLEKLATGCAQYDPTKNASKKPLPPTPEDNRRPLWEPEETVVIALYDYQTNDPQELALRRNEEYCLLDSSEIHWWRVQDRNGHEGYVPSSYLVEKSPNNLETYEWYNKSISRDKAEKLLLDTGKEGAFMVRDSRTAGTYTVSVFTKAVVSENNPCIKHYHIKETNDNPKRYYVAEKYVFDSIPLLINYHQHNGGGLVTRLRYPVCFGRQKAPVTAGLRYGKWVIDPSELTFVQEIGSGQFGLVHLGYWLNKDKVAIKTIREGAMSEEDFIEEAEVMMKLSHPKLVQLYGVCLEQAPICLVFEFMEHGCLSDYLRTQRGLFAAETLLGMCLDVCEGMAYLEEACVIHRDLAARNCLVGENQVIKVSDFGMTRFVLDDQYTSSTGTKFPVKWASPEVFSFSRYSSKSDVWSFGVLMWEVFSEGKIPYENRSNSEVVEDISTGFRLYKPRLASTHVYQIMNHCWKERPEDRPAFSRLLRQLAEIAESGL
The experiment can be described thus: ITK Inhibition Assay (AlphaScreen). Type of experiment: biochemical. The conditions noted are these: Ki(app); 100 μM ATP, 2 μM biotinylated SAM68 peptide, 30 nM Itk, 25° C. The protocol:
Compounds were screened for their ability to inhibit Itk using an AlphaScreen™ phosphotyrosine assay at Vertex Pharmaceuticals. Assays were carried out in a mixture of 20 mM MOPS (pH 7.0), 10 mM MgCl2, 0.1% BSA and 1 mM DTT. Final substrate concentrations in the assay were 100 μM ATP (Sigma Chemicals) and 2 μM peptide (Biotinylated SAM68 Δ332-443). Assays were carried out at 25° C. and in the presence of Itk (30 nM). An assay stock buffer solution was prepared containing all of the reagents listed above, with the exception of ATP and the test compound of interest. 25 μL of the stock solution was placed in each well of a 96 well plate followed by 1 μL of DMSO containing serial dilutions of the test compound (typically starting from a final concentration of 15 μM) in duplicate (final DMSO concentration 2%). The plate was preincubated for 10 minutes at 25° C. and the reaction initiated by addition of 25 μL ATP (final concentration 100 μM). Background counts were determined by the addition of 5 μL 500 mM EDTA to control wells containing assay stock buffer and DMSO prior to initiation with ATP.
The reaction was stopped after 30 minutes by diluting the reaction 225-fold into MOPS buffer (20 mM MOPS (pH 7.0), 1 mM DTT, 10 mM MgCl2, 0.1% BSA) containing 50 mM EDTA to bring the final concentration of Biotin-SAM68 to 9 nM.
AlphaScreen™ reagents were prepared according to the manufacturers instructions (AlphaScreen™ phosphotyrosine (P-Tyr-100) assay kit, PerkinElmer catalogue number 6760620C). Under subdued lighting, 20 μL of AlphaScreen™ reagents were placed in each well of a white half area 96 well plate (Corning Inc.—COSTAR 3693) with 30 μL of the stopped, diluted kinase reactions. Plates were incubated in the dark for 60 minutes prior to reading on a Fusion Alpha plate reader (PerkinElmer).
After removing mean background values for all of the data points, Ki(app) data were calculated from non-linear regression analysis using the Prism software package (GraphPad Prism version 3.0cx for Macintosh, GraphPad Software, San Diego Calif., USA).
(Alpha assays give light when donor and acceptor beads are brought close together.)
On to `COc1cc2nc3nc(Nc4cc(C5CC5)n[nH]4)c4ccccc4n3c(=O)c2cc1OC` [Compound I-10], for which the negative logarithm of the Ki (pKi) (as a rule, −log10 of the Ki, conventionally taken in molar units) was greater than 6.00.

Regarding `CCOC(=O)Nc1ccc2c(=O)n3c(nc(Nc4cc(C5CC5)n[nH]4)c4ccccc43)nc2c1` [Compound I-16], the pKi was greater than 6.00.

As to `Nc1ccc2c(=O)n3c(nc(Nc4cc(C5CC5)[nH]n4)c4ccccc43)nc2c1` [Compound I-1], the negative-log Ki (pKi) is greater than 6.00.

For `O=c1c2ccccc2nc2nc(Nc3cc(C4CCCC4)n[nH]3)c3ccccc3n12` [Compound I-9], the pKi is greater than 6.00.

Regarding `O=c1c2ccccc2nc2nc(Nc3cc(C4CC4)n[nH]3)c3c(n12)CCC3` [Compound I-15], the negative logarithm of the Ki (pKi) was greater than 6.00.

On to `O=c1c2ccccc2nc2nc(Nc3cc(CCCO)[nH]n3)c3ccccc3n12` [Compound I-20], for which the pKi is greater than 6.00.

Consider `CCCc1cc(Nc2nc3nc4ccccc4c(=O)n3c3ccccc23)n[nH]1` [Compound I-13], for which the pKi was greater than 6.00.

Consider `COCCCc1cc(Nc2nc3nc4ccccc4c(=O)n3c3ccccc23)n[nH]1` [Compound I-21], for which the pKi is greater than 6.00.

`CC(C)c1cc(Nc2nc3nc4ccccc4c(=O)n3c3ccccc23)[nH]n1` [Compound I-7] gave a negative logarithm of the Ki (pKi) greater than 6.00.

In the case of `O=c1c2ccccc2nc2nc(Nc3cc(C4CC4)n[nH]3)c3ccccc3n12` [Compound I-2], the pKi was greater than 6.00.

Consider `COc1cc2nc3nc(Nc4cc(C5CCCC5)n[nH]4)c4ccccc4n3c(=O)c2cc1OC` [Compound I-11], for which the pKi is greater than 6.00.

For `COc1cc2nc3nc(Nc4cc(C(C)C)n[nH]4)c4ccccc4n3c(=O)c2cc1OC` [Compound I-14], the negative-log Ki (pKi) was greater than 6.00.

Regarding `O=c1c2ccccc2nc2nc(Nc3cc(C4CC4)n[nH]3)c3c(n12)CCCC3` [Compound I-17], the pKi is greater than 6.00.

Compound `Cc1cc(Nc2nc3nc4cc(N)ccc4c(=O)n3c3ccccc23)[nH]n1` [Compound I-3] showed a negative-log Ki (pKi) greater than 6.00.
